Where two headings read alike, the source gives them in different places.
How the values were obtained:
SKMEL-28 mitochondria = experiment: 2-D gel electrophoresis of mitochondria enriched samples; type: cell-based
SDH Subunit B = experiment: Western blot, Succinate Dehydrogenase B in mitochondrial preparations; type: cell-based; conditions: mitochondrial preparations of cancer cells
Experimental: The above blots were stripped by incubating for 30 minutes with methanol, followed by two 10 minute washes with TBS-T, then 30 minutes of incubation with Stripping buffer at 50 deg C., and followed by two washes with 100 ml or more of TBS-T for 30′ each. The blots were scanned in laser scanner to check for complete stripping. The blots were activated with methanol for 5 seconds, washed with water for 5 minutes, and TBST for 15 minutes. The blots were blocked for 1 hour with 5% blocking reagent in TBS-T at room temperature and then washed 3 times with TBS-T (1×-15′; 2×5′ each) and probed with the primary antibody for PKM2, SDHB or SDHC in 5% BSA in TBS-T by incubation overnight at 4 deg C. with gentle shaking. The primary antibody for SDHC (ABNOVA H00006391-M02; antimouse) was at 1:500 dilution. The primary antibody for SDHB was from Abcam ab4714-200; antimouse; at 1:1000 dilution. The primary antibody for Pyruvate Kinase M2 (PKM2) was from Novus Biologicals H00005315-D0IP; antirabbit; at 1:500 dilution. After incubation with primary antibodies, the membranes were washed 3 times with TBS-T (1×-15′; 2×5′ each) and probed with the secondary antibody (SDHB & C antimouse; and PKM2 antirabbit; 1:10,000 dilution) for 1 h on the orbital tilting shaker at room temperature. […]

pancreatic cancer = conditions: intravenous
Caspase 3 = experiment: Western blot, Caspase 3 levels; type: cell-based, human; conditions: PACA2, 5g glucose, amount 50
Experimental: The blots were stripped by incubating for 30 minutes with methanol, followed by two 10 minute washes with TBS-T, then 30 minutes of incubation with Stripping buffer at 50 deg C., and followed by two washes with 100 ml or more of TBS-T for 30′ each. The 2 blots were scanned in laser scanner to check for complete stripping. The blots were activated with methanol for 5 seconds, washed with water for 5 minutes, and TBST for 15 minutes. The blots were blocked for 1 hour with 5% blocking reagent in TBS-T at room temperature and then washed 3 times with TBS-T (1×-15′; 2×5′ each) and probed with the antibody for Caspase 3 in 5% BSA (Santacruz Biotechnology # sc7272) at 1:200 dilutions) overnight at 4 deg C. with shaking. After the overnight incubation with primary antibody for Caspase 3, the membranes were washed 3 times with TBS-T (1×-15′; 2×5′ each) and probed with the secondary antibody (antimouse; 1:10,000 dilution) for 1 h on the orbital tilting shaker at room temperature. […]
The levels of Caspase 3 and actin were determined by probing the blots successively with primary antibodies for Caspase 3 and actin, essentially as described above. […]

COC1=C(OC)C(=O)C(C/C=C(\C)CC/C=C(\C)CC/C=C(\C)CC/C=C(\C)CC/C=C(\C)CC/C=C(\C)CC/C=C(\C)CC/C=C(\C)CC/C=C(\C)CCC=C(C)C)=C(C)C1=O [Q10, Coenzyme Q10]
Response, direction (SKMEL-28 mitochondria; 100 μM Q10, at 6 hr, protein spot 372): Up
Response (SKMEL-28 mitochondria; 100 μM Q10, at 19 hr): Up only at 19 hr
Response (SKMEL-28 mitochondria; 100 μM Q10, at 48 hr): Up at 48 hr
SDH protein levels (SDH Subunit B): increase SDH protein levels
animals alive (pancreatic cancer; 5 mg/kg (Group D), after 28 days): most of the animals
animals alive (pancreatic cancer; 10 mg/kg (Group E), after 28 days): most of the animals
animals alive (pancreatic cancer; 25 mg/kg (Group F), after 28 days): most of the animals
animals alive (pancreatic cancer; 50 mg/kg (Group G), at 28 days): all of the animals
Caspase 3 Normalized Volume (48 h) (Caspase 3): 701

From patent publication US10351915B2 (Berg LLC, priority 2009, dated 2019)
